Patent publication US20140011778A1, “2-METHYLENE-19,23,24-TRINOR-1ALPHA-HYDROXYVITAMIN D3” (Wisconsin Alumni Research Foundation, priority 2011, published 2014)
Like-named read-outs stand apart in the source and are kept apart here.

Legend:
[1] = biological target: T1, Full-length recombinant rat receptor (vitamin D receptor) (Rattus norvegicus, UniProt P13053); conditions: comparison compound from an earlier filing; read-out: Competitive VDR Binding, Ki; cited from earlier work
T1 construct: Full-length recombinant rat receptor was expressed in E. coli; histidine tag (C); made in house; host or cells: E. coli BL21(DE3) Codon Plus RIL
T1 sequence (P13053 1-423): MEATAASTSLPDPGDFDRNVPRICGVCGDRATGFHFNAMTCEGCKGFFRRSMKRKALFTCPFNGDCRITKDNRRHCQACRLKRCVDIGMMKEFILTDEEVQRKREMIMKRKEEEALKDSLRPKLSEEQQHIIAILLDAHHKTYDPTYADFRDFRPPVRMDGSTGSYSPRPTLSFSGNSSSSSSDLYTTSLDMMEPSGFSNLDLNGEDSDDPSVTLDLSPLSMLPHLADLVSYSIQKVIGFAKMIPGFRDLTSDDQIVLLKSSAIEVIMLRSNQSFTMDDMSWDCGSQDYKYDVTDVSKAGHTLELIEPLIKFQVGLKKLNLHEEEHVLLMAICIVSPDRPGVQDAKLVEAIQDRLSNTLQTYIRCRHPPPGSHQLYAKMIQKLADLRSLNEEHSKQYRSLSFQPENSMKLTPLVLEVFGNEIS

[2] = tested on: Sprague-Dawley rats; experiment: Intestinal calcium transport (everted gut sac); assay type: in vivo, rat; conditions: for serosal calcium to mucosal calcium ratio: rat, at 780 pM (so in the source)
Method: Male, weanling Sprague-Dawley rats were placed on Diet 11 (0.47% Ca) diet+AEK oil for one week followed by Diet 11 (0.02% Ca)+AEK oil for 3 weeks. The rats were then switched to a diet containing 0.47% Ca for one week followed by two weeks on a diet containing 0.02% Ca. Dose administration began during the last week on 0.02% calcium diet. Four consecutive intraperitoneal doses were given approximately 24 hours apart. Twenty-four hours after the last dose, blood was collected from the severed neck and the concentration of serum calcium determined as a measure of bone calcium mobilization. The first 10 cm of the intestine was also collected for intestinal calcium transport analysis using the everted gut sac method.

[3] = tested on: Human promyelocytic leukemia (HL60) cells; experiment: HL-60 differentiation (nitro blue tetrazolium reduction); assay type: cell-based; conditions: for HL-60 Differentiation (Relative Activity): (value for native hormone)/(value for working example), same assay; for EC50: Homo sapiens, 96 h, HL-60 cells into monocytes, 4 days
Method: The study drugs were dissolved in ethanol and the concentrations determined using UV spectrophotometry. Serial dilutions were prepared so that a range of drug concentrations could be tested without changing the final concentration of ethanol (≦0.2%) present in the cell cultures.
Human promyelocytic leukemia (HL60) cells were grown in RPMI-1640 medium containing 10% fetal bovine serum. The cells were incubated at 37° C. in the presence of 5% CO2.
HL60 cells were plated at 1.2×10^5 cells/ml. Eighteen hours after plating, cells in duplicate were treated with the drug. Four days later, the cells were harvested and a nitro blue tetrazolium reduction assay was performed (Collins et al., 1979; J. Exp. Med. 149:969-974). The percentage of differentiated cells was determined by counting a total of 200 cells and recording the number that contained intracellular black-blue formazan deposits. Verification of differentiation to monocytic cells was determined by measuring phagocytic activity (data not shown).

[4] = biological target: T1, Full-length recombinant rat receptor (vitamin D receptor); experiment: Vitamin D receptor competitive binding; conditions: recombinant rat VDR, 3H-1,25(OH)2D3 1 nM
Method: Full-length recombinant rat receptor was expressed in E. coli BL21(DE3) Codon Plus RIL cells and purified to homogeneity using two different column chromatography systems. The first system was a nickel affinity resin that utilizes the C-terminal histidine tag on this protein. The protein that was eluted from this resin was further purified using ion exchange chromatography (S-Sepharose Fast Flow). Aliquots of the purified protein were quick frozen in liquid nitrogen and stored at −80° C. until use. For use in binding assays, the protein was diluted in TEDK50 (50 mM Tris, 1.5 mM EDTA, pH 7.4, 5 mM DTT, 150 mM KCl) with 0.1% Chaps detergent. The receptor protein and ligand concentration was optimized such that no more than 20% of the added radiolabeled ligand was bound to the receptor.
Unlabeled ligands were dissolved in ethanol and the concentrations determined using UV spectrophotometry (1,25(OH)2D3: molar extinction coefficient=18,200 and λmax=265 nm; Analogs: molar extinction coefficient=42,000 and λmax=252 nm). Radiolabeled ligand (^3H-1,25(OH)2D3, ˜159 Ci/mmole) was added in ethanol at a final concentration of 1 nM.
Radiolabeled and unlabeled ligands were added to 100 mcl of the diluted protein at a final ethanol concentration of ≦10%, mixed and incubated overnight on ice to reach binding equilibrium. […] Total binding was determined from the tubes containing only radiolabeled ligand.

[5] = tested on: 24-hydroxylase (24OHase) gene promoter; experiment: In vitro transcription assay (24OHase promoter-luciferase in ROS 17/2.8 cells); assay type: cell-based; conditions: for 24OHase Transcription (Relative Activity): (value for native hormone)/(value for working example), same assay
Method: Transcription activity was measured in ROS 17/2.8 (bone) cells that were stably transfected with a 24-hydroxylase (24OHase) gene promoter upstream of a luciferase reporter gene (Arbour et al., 1998). Cells were given a range of doses. Sixteen hours after dosing, the cells were harvested and luciferase activities were measured using a luminometer. RLU=relative luciferase units.

[6] = ROS 17/2.8 cells, luciferase, 16 h, read-out: 24OHase Transcription, EC50

| SMILES | Ki [1] | serosal calcium to mucosal calcium ratio [2] | HL-60 Differentiation (Relative Activity) [3] | EC50 [3] | Ki [4] | 24OHase Transcription (Relative Activity) [5] | EC50 [5, 6] | other results |
| --- | --- | --- | --- | --- | --- | --- | --- | --- |
| C=C1C(O)CC(=CC=C2CCCC3(C)C2CCC3C(C)CCC)CC1O [2MtrisP, 2-methylene-19-nor-(20S)-1α-hydroxytrishomopregnacalciferol] | 0.075 nM | – | – | – | – | – | – | – |
| C=C1/C(=C\C=C2/CCC[C@]3(C)[C@@H]([C@H](C)CCCC(C)(C)O)CC[C@@H]23)C[C@@H](O)C[C@@H]1O [native hormone, 1α,25-dihydroxyvitamin D3, reference compound] | – | 4.1 | – | – | – | – | – | – |
| C=C1C(O)CC(=CC=C2CCCC3(C)C2CCC3C(C)CC)CC1O [(20R)-2MbisP, 2-methylene-19-nor-(20R)-1α-hydroxybishomopregnacalciferol] | 0.078 nM | – | – | – | – | – | – | – |
| C=C1[C@H](O)CC(=C/C=C2\CCC[C@]3(C)[C@@H]([C@H](C)CC(C)C)CC[C@@H]23)C[C@H]1O [RMB, (20R)-2-methylene-19,23,24-trinor-1α-hydroxyvitamin D3] | – | 0.9 | 0.0005 | 6000 nM | 4 nM | 0.003 | 100 nM | less active than (20R)-2MbisP in differentiation of HL-60 cells ([3]; ratio of relative activities 0.18/0.0005): approximately 360 times; less active than (20R)-2MbisP in hydroxylase transcription ([5]; ratio of relative activities 0.05/0.003): more than 16 times |
| C=C1[C@H](O)CC(=C/C=C2\CCC[C@]3(C)[C@@H]([C@@H](C)CC(C)C)CC[C@@H]23)C[C@H]1O [SMB, (20S)-2-methylene-19,23,24-trinor-1α-hydroxyvitamin D3] | – | – | 0.08 | 40 nM | 0.4 nM | 0.04 | 8 nM | intestinal calcium transport activity lower than that of the native hormone ([2]; 7020 pmol SMB similar to 87 pmol native hormone): approximately 80 times; less active than 2MtrisP in HL-60 differentiation, normalized against native hormone ([3]; ratio of relative activities 1.2/0.08): ≈ 15; EC50 ([5]; FIG. 3, read-out: EC50 with respect to increasing transcription of the 24-hydroxylase gene): 8000 nM |
